Measurements from patent US20100015058A1, “RADIOLABELED BBN-RGD HETERODIMERS FOR CANCER TARGETING” (STANFORD UNIVERSITY, priority 2008, published 2010).

Columns and labels:
PC-3 tumor cells = experiment: Cell uptake assay on PC-3 tumor cells; type: cell-based, human; details: PC-3 cells
Method in brief: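 PC-3 cells incubated with ^18F- or ^68Ga-labeled tracers (about 2 μCi or 18 kBq/well) at 37° C for 5–120 min, washed, then lysed or trypsinized and gamma-counted. Uptake given as % added dose, decay-corrected for ^68Ga; efflux measured after 1 h loading then 15–60 min in medium.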

[1] = MicroPET of T47D tumor-bearing mice; type: in vivo; details: female, nude, mouse, T47D tumor, iv, total radioactivity, orthotopic model
Excerpt: The MDA-MB-231, MDA-MB468, BT474, BT-20, T47D, MCF-7 and MDA-MB435 human breast cancer cell lines were all obtained from the American Type Culture Collection (ATCC) and maintained under standard conditions according to ATCC. The MDA-MB435 tumor model was established by orthotopic injections of 5×10^6 cells into the right mammary fat pad of female athymic nude mice. For T47D tumor model establishment, the female nude mice were first subcutaneously implanted with 60-day release 17β-estradiol pellets (Innovative Research of America, Sarasota, Fla.) in the left neck. One day after the estradiol implantation, 1×10^7 T47D cells were orthotopically injected into the right mammary fat pad of the nude mice. The mice were subjected to microPET studies when the tumor volume reached 100-300 mm^3 (2-3 weeks for MDA-MB-435, and 4-5 wk for T47D).
(§1) Quantification of tumor and major organ activity accumulation in the microPET scans was realized by measuring the regions of interest (ROIs) that encompassing the entire organ on the coronal images.

in vivo = details: mouse, in vivo, iv, total radioactivity
[2] = MicroPET blood and normal organ uptake in T47D and MDA-MB-435 tumor-bearing nude mice; details: average of eight mice; for tissue uptake at 1 h / tissue uptake at 2 h / tissue uptake at 4 h / tissue uptake at 24 h / tissue uptake at 0.5 h: nude, mouse, iv, total radioactivity
Excerpt: The T47D or MDA-MB435 tumor uptake is expressed as the average of each tracer in four mice, while the normal organ uptake is expressed as the average of each tracer in eight mice (four T47D tumor-bearing mice and four MDA-MB-435 tumor-bearing mice per tracer).

[3] = Small-animal PET of MDA-MB-435 tumor-bearing mice; details: female, athymic nude, mouse, in vivo, iv, total radioactivity
Description: The MDA-MB435 tumor model was established by orthotopic injections of 5×10^6 cells into the right mammary fat pad of female athymic nude mice. […] The mice were subjected to microPET studies when the tumor volume reached 100-300 mm^3 (2-3 weeks for MDA-MB-435, and 4-5 wk for T47D).
For static PET, 5-min scans were acquired at 30 min, 1 h, and 2 h after injection. For dynamic PET, 30-min scans (1×30 s, 4×1 min, 1×1.5 min, 4×2 min, 5×3 min; total 15 frames) were started 1 min after injection, and two 5-min static PET images were also acquired at 1 h and 2 h after injection. The images were reconstructed using a two-dimensional ordered subsets expectation maximum (OSEM) algorithm and no correction was applied for attenuation or scatter. […] For each small-animal PET scan, regions of interest (ROIs) were drawn over the tumor, normal tissue, and major organs using vendor software ASI Pro 5.2.4.0 on decay-corrected whole-body coronal images. The maximum radioactivity concentrations (accumulation) within a tumor or an organ were obtained from mean pixel values within the multiple ROI volume, and were converted to megabecquerels per milliliter per minute using a conversion factor. These values were then divided by the administered activity to obtain (assuming a tissue density of 1 g/ml) an image ROI-derived percent injected dose per gram (% ID/g).
as §1

[4] = male, athymic nude, 5.5 MBq, Tumor uptake
[5] = male, athymic nude, 3.7 MBq, PC-3 tumor uptake
[6] = male, athymic nude, 3.7 MBq, PC-3 tumor uptake, dynamic scan
[7] = male, athymic nude, 3.7 MBq, PC-3 tumor uptake, static scan after dynamic scan

SMILES: CSCC[C@H](NC(=O)[C@H](CC(C)C)NC(=O)[C@H](Cc1c[nH]cn1)NC(=O)CNC(=O)[C@@H](NC(=O)[C@H](C)NC(=O)[C@H](Cc1c[nH]c2ccccc12)NC(=O)[C@H](CCC(N)=O)NC(=O)CCCCCNC(=O)CC[C@H](NC(=S)Nc1ccc(C[C@H]2CN(CC(=O)O)CCN(CC(=O)O)CCN2CC(=O)O)cc1)C(=O)NCCCC[C@@H]1NC(=O)[C@@H](Cc2ccc(O)cc2)NC(=O)[C@H](CC(=O)O)NC(=O)CNC(=O)[C@H](CCCNC(=N)N)NC1=O)C(C)C)C(N)=O [^64Cu-NOTA-RGD-BBN, metal not drawn]
- cell uptake value (PC-3 tumor cells; 120 min): 2.94 % added dose
- tissue uptake at 4 h ([1]; 4 h): 1.94 ± 0.22 %ID/g
- tissue uptake at 24 h ([1]; 24 h): 1.38 ± 0.16 %ID/g
- tissue uptake at 0.5 h (in vivo; male, athymic nude, 5.5 MBq, Blood uptake): < 1 %ID/g
- tissue uptake at 1 h (in vivo; male, athymic nude, 5.5 MBq, PC-3 tumor uptake with BBN blocking): 0.76 ± 0.36 %ID/g
- tissue uptake at 1 h (in vivo; male, athymic nude, 5.5 MBq, PC-3 tumor uptake with RGD and BBN blocking): 0.54 ± 0.41 %ID/g
- tissue uptake at 1 h (in vivo; male, athymic nude, 5.5 MBq, PC-3 tumor uptake with RGD blocking): 1.64 ± 0.77 %ID/g
- tissue uptake at 0.5 h (in vivo; [4]): 3.06 ± 0.11 %ID/g
- tissue uptake at 1 h (in vivo; [4]): 2.78 ± 0.56 %ID/g
- tissue uptake at 4 h (in vivo; [4]): 2.21 ± 0.49 %ID/g
- tissue uptake at 20 h (in vivo; [4]): 2.04 ± 0.35 %ID/g
- tissue uptake at 24 h (in vivo; [4]): 2.04 ± 0.35 %ID/g
- tissue uptake (in vivo; male, athymic nude, 5.5 MBq, liver uptake): 3.5 %ID/g
- tissue uptake at 1 h (in vivo; 5.5 MBq, Blood uptake): 0.66 ± 0.15 %ID/g
- tissue uptake at 4 h (in vivo; 5.5 MBq, Blood uptake): 0.49 ± 0.07 %ID/g
- tissue uptake at 20 h (in vivo; 5.5 MBq, Blood uptake): 0.5 ± 0.15 %ID/g
- tissue uptake at 0.5 h (in vivo; 5.5 MBq, Kidney uptake): 4.09 ± 0.81 %ID/g
- tissue uptake at 1 h (in vivo; 5.5 MBq, Kidney uptake): 3.06 ± 0.25 %ID/g
- tissue uptake at 4 h (in vivo; 5.5 MBq, Kidney uptake): 2.3 ± 0.41 %ID/g
- tissue uptake at 20 h (in vivo; 5.5 MBq, Kidney uptake): 1.87 ± 0.41 %ID/g
- tissue uptake at 0.5 h (in vivo; 5.5 MBq, Liver uptake): 3.46 ± 0.26 %ID/g
- tissue uptake at 1 h (in vivo; 5.5 MBq, Liver uptake): 2.8 ± 1.15 %ID/g
- tissue uptake at 4 h (in vivo; 5.5 MBq, Liver uptake): 1.83 ± 0.68 %ID/g
- tissue uptake at 20 h (in vivo; 5.5 MBq, Liver uptake): 0.98 ± 0.4 %ID/g
- Blood uptake ([2]; 0.5 h): 1.40 ± 0.34 % ID/g
- Kidney uptake ([2]; 0.5 h): 5.29 ± 0.58 % ID/g
- Liver uptake ([2]; 0.5 h): 4.82 ± 1.34 % ID/g
- Muscle uptake ([2]; 0.5 h): 0.91 ± 0.27 % ID/g
- Kidney uptake ([2]; 1 h): 4.32 ± 0.55 % ID/g
- Liver uptake ([2]; 1 h): 4.05 ± 1.12 % ID/g
- Muscle uptake ([2]; 1 h): 0.75 ± 0.12 % ID/g
- Kidney uptake ([2]; 2 h): 3.28±0.99 % ID/g
- Liver uptake ([2]; 2 h): 3.22 ± 0.97 % ID/g
- Muscle uptake ([2]; 2 h): 0.56 ± 0.33 % ID/g
- tissue uptake at 1 h ([2]; blood, Blood uptake, 1 h): 1.01 ± 0.21 %ID/g
- tissue uptake at 2 h ([2]; blood, Blood uptake, 2 h): 0.89 ± 0.23 %ID/g
- tissue uptake at 4 h ([2]; blood, Blood uptake): 0.54 ± 0.2 %ID/g
- tissue uptake at 24 h ([2]; blood, Blood uptake): 0.36 ± 0.04 %ID/g
- tissue uptake at 4 h ([2]; kidney, Kidney uptake): 2.95 ± 0.26 %ID/g
- tissue uptake at 24 h ([2]; kidney, Kidney uptake): 2.1 ± 0.72 %ID/g
- tissue uptake at 4 h ([2]; liver, Liver uptake): 2.76 ± 0.81 %ID/g
- tissue uptake at 24 h ([2]; liver, Liver uptake): 2.24 ± 0.36 %ID/g
- tissue uptake at 4 h ([2]; muscle, Muscle uptake): 0.4 ± 0.07 %ID/g
- tissue uptake at 24 h ([2]; muscle, Muscle uptake): 0.21 ± 0.04 %ID/g
- tissue uptake at 4 h ([3]; MDA-MB-435 tumor uptake): 1.79 ± 0.2 %ID/g
- tissue uptake at 24 h ([3]; MDA-MB-435 tumor uptake): 1.29 ± 0.09 %ID/g

SMILES: CSCC[C@H](NC(=O)[C@H](CC(C)C)NC(=O)[C@H](Cc1c[nH]cn1)NC(=O)CNC(=O)[C@@H](NC(=O)[C@H](C)NC(=O)[C@H](Cc1c[nH]c2ccccc12)NC(=O)[C@H](CCC(N)=O)NC(=O)CCCCCNC(=O)CC[C@H](NC(=S)Nc1ccc(C[C@H]2CN(CC(=O)O)CCN(CC(=O)O)CCN2CC(=O)O)cc1)C(=O)NCCCC[C@@H]1NC(=O)[C@@H](Cc2ccc(O)cc2)NC(=O)[C@H](CC(=O)O)NC(=O)CNC(=O)[C@H](CCCNC(=N)N)NC1=O)C(C)C)C(N)=O [^68Ga-NOTA-RGD-BBN, metal not drawn]
- cell uptake (plateau) (PC-3 tumor cells; 37° C., 15 min incubation): 1.69±0.29 % AD
- tissue uptake at 0.5 h ([1]; 0.5 h): 3.91 ± 1.13 %ID/g
- tissue uptake at 1 h ([1]; 1 h): 2.78 ± 0.87 %ID/g
- tissue uptake at 2 h ([1]; 2 h): 2.42 ± 0.29 %ID/g
- tissue uptake at 1 h (in vivo; male, athymic nude, 10 mg/kg, PC-3 tumor uptake with RGD blocking, 1 h, 3.7 MBq, co-injected c(RGDyK) 10 mg/kg): 2.08 ± 0.65 %ID/g
- tissue uptake at 0.5 h (in vivo; [5]): 6.55 ± 0.83 %ID/g
- tissue uptake at 1 h (in vivo; [5]): 5.26 ± 0.32 %ID/g
- tissue uptake at 2 h (in vivo; [5]): 4.04 ± 0.28 %ID/g
- tissue uptake at 5 min (in vivo; [6]): 5.56 %ID/g
- tissue uptake at 0.25 h (in vivo; [6]): 6.68 %ID/g
- tissue uptake at 0.5 h (in vivo; [6]): 6.7 %ID/g
- tissue uptake at 1 h (in vivo; [7]): 4.47 %ID/g
- tissue uptake at 2 h (in vivo; [7]): 3.75 %ID/g
- tissue uptake at 0.5 h (in vivo; male, athymic nude, 3.7 MBq, liver uptake (highest)): ~2 %ID/g
- tissue uptake at 1 h (in vivo; male, athymic nude, PC-3 tumor uptake with BBN blocking, 1 h, 3.7 MBq, co-injected Aca-BBN(7-14) 15 mg/kg): 1.61 ± 0.57 %ID/g
- tissue uptake at 1 h (in vivo; male, athymic nude, PC-3 tumor uptake with RGD+BBN blocking, 1 h, 3.7 MBq, co-injected RGD 10 mg/kg and BBN 15 mg/kg): 0.42 ± 0.1 %ID/g
- Blood uptake ([2]; 0.5 h): 2.91 ± 0.28 % ID/g
- Blood uptake ([2]; 1 h): 1.95 ± 0.47 % ID/g
- Blood uptake ([2]; 2 h): 1.06 ± 0.23 % ID/g
- Kidney uptake ([2]; 2 h): 1.64±0.40 % ID/g
- Liver uptake ([2]; 2 h): 1.60 ± 0.09 % ID/g
- tissue uptake at 2 h ([2]; female, kidney, Kidney uptake, 2 h): 1.64 ± 0.4 %ID/g
- tissue uptake at 0.5 h ([2]; female, liver, Liver uptake, 0.5 h): 2.68 ± 0.29 %ID/g
- tissue uptake at 0.5 h ([2]; kidney, Kidney uptake, 0.5 h): 4.39 ± 1.05 %ID/g
- tissue uptake at 1 h ([2]; kidney, Kidney uptake, 1 h): 3.96 ± 1.12 %ID/g
- tissue uptake at 1 h ([2]; liver, Liver uptake, 1 h): 2.08 ± 0.43 %ID/g
- tissue uptake at 0.5 h ([2]; muscle, Muscle uptake, 0.5 h): 1.33 ± 0.28 %ID/g
- tissue uptake at 1 h ([2]; muscle, Muscle uptake, 1 h): 1.18 ± 0.44 %ID/g
- tissue uptake at 2 h ([2]; muscle, Muscle uptake, 2 h): 0.78 ± 0.07 %ID/g
- tissue uptake at 1 h ([3]; 3.7 MBq, MDA-MB435 tumor uptake): 3.23 ± 0.86 %ID/g
- tissue uptake at 1 h ([3]; MDA-MB-435 tumor uptake): 2.24 ± 0.73 %ID/g
- tissue uptake at 2 h ([3]; MDA-MB-435 tumor uptake): 1.84 ± 0.72 %ID/g
